Measurements reported in patent US20240418701A1, “SINGLE MOLECULE IDEN[…] A REACTIVE HETERO-NANOPORE” (priority 2021, published 2024).

What was measured:
[1] = molecular target: T1, MspA-PBA (boronic acid appended hetero-octameric MspA) (Mycolicibacterium smegmatis, UniProt A0QR29, D117C/D118N/D120N/D145R/D161R/E166K); assay: Single channel recording of alditol binding to MspA-PBA nanopore (standards and zero-sugar drinks); parameters: species or system Mycobacterium smegmatis; settings: N=3; for ratio (mean current percentage blockage) / std (standard deviation of the blocking level): alditol 4 mM (glycerol 8 mM) in cis
T1 construct: H6 (hexa-histidine) (C); 3-(maleimide) phenylboronic acid (MPBA) adduct on the thiol of Cys90; made in house; host or cells: E. coli BL21 (DE3) pLysS, co-expression from pETDuet-1
T1 sequence (A0QR29 other isoform, or with tags, fused parts or gaps D117N/D118N/D120N/D145R/D161R/E166K): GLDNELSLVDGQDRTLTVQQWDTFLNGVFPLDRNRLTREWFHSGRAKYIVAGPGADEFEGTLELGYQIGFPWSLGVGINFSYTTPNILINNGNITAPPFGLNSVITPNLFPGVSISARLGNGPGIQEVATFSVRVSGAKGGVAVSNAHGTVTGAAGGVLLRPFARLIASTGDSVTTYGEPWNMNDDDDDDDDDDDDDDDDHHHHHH
T1 sequence (A0QR29 other isoform, or with tags, fused parts or gaps D117C/D118N/D120N/D145R/D161R/E166K): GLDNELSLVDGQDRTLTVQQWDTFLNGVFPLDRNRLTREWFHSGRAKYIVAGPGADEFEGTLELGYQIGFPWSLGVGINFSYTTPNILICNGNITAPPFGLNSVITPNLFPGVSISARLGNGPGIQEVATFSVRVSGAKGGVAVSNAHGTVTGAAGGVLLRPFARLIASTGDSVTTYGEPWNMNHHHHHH
Experimental: FIG. 88: Definition of event parameters. (a) A representative electrophysiology trace containing nanopore events. Xylitol was treated as the model analyte. I0 is the open pore current and Ib is the residual current caused by alditol blockade. ratio is derived from (I0−Ib)/I0, which is defined as the percentage blockage. τoff represents the dwell time of an event. τon represents the inter-event interval. std is the standard deviation value of the blockage level. (b-c) The histogram plot of ratio (b) and std (c) acquired from a continually recorded trace. The histograms were Gaussian fitted and the peaks of the fitting results respectively represent the mean value of ratio and the mean std. (d-e) The histogram plots of τoff (d) and τon (e) acquired from a continually recorded trace. The histogram plots were respectively fit to a single exponential curve, according to the equation y=a*exp (−x/τ), from which the mean event dwell time (τoff) (d) and the mean inter-event interval (τon) (e) were respectively derived. If not otherwise stated, all results in this manuscript were described by event parameters defined above.
All subsequent nanopore measurements were carried out with a 1.5 M KCl buffer (1.5 M KCl, 10 mM 3-(N-Morpholino) propanesulfonic acid (MOPS), pH 7.0) and a +100 m V continually applied potential (Method 1 in Example 3). 13 types of alditols, which were derived from the reduction of the carbonyl group of C3-C6 monoaldoses were treated as model polyols (FIGS. 77b and 83). The PBA of MspA-PBA can complex with a polyol, forming a cyclic ester at the pore constriction and resulting in the corresponding nanopore event being reported. All alditols were added to the cis side of the pore and the final concentration of alditols was set at 4 mM with the exception of glycerol, which was set at 8 mM instead. […] In addition, single molecule sensing of glycerol and D-Sorbitol by MspA-PBA are as shown in FIGS. 104 and 105, respectively.
To describe the sensing events quantitatively, event parameters such as the open-pore current (I0), the current blockade (Ib), the percentage blockage (ratio), the event dwell time (τoff), the inter-event intervals (τon) and the standard deviation value of the blockage level (std) were defined as described in FIG. 88. The percentage blockage, also referred to for simplicity as ratio, is defined as (I0−Ib)/I0.
Quantitatively, the reciprocal of the mean inter-event interval (1/τon, N=3) is linearly correlated with the alditol concentration, consistent with a bimolecular model. The mean event dwell time τoff (N=3) however is independent of the alditol concentration, and this is consistent with a unimolecular dissociation mechanism (FIGS. 89e-92e, Table 18). […] The binding constant for borate cyclic ester formation for alditols increases as the number of hydroxyl groups in the alditol increases (FIG. 77c and Table 18), consistent with conclusions drawn previously from the corresponding NMR measurements.^52 Nanopore measurements were also performed with different applied voltages. […] This is expected because all alditols tested in this paper are electrically neutral and the formation of a borate ester is independent of the local electric field.
All nanopore measurements were performed as described previously.^1,2 Briefly, the measurement device has two custom chambers separated by a thick Teflon film containing a drilled (˜100 μm) aperture. Before the measurement, the aperture was first treated with 0.5% (v/v) hexadecane in pentane and set for pentane evaporation. Electrolyte buffer (500 μL) was added to the electrically grounded chamber (cis chamber) and the opposing chamber (trans chamber). All nanopore measurements in this paper were performed with a 1.5 M KCl buffer (1.5 M KCl, 10 mM MOPS, pH 7.0). Two custom-made Ag/AgCl electrodes were placed in both chambers in contact with the buffers and the patch-clamp amplifier to form a closed circuit. […]

Octameric M2 MspA = molecular target: T2, Octameric M2 MspA (Mycolicibacterium smegmatis, UniProt A0QR29, D117N/D118N/D120N/D145R/D161R/E166K); assay: Alditol sensing using M2 MspA nanopore (control without PBA); type: binding, Mycobacterium smegmatis; settings: alditol 4 mM in cis, +100 mV
T2 construct: made in house; host or cells: E. coli BL21 (DE3)
T2 sequence (A0QR29 28-211 D117N/D118N/D120N/D145R/D161R/E166K): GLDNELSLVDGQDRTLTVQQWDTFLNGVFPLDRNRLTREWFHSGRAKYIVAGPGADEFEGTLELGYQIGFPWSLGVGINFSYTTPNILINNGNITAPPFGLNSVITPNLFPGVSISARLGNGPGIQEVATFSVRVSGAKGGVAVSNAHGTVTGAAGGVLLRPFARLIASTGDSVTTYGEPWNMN
Experimental: FIG. 87: Alditol sensing using M2 MspA nanopore. Glycerol, erythritol, xylitol and sorbitol were used as the representative alditols with different number of hydroxyl groups. All measurements were carried out as described in Methods 1 in Example 3. Octameric M2 MspA was applied as the nanopore sensor. A transmembrane potential of +100 m V was continually applied. Each alditol was added to cis with a final concentration of 4 mM.
The octameric M2 MspA was used as a control in FIG. 87. It was expressed with E. coli BL21 (DE3) and purified by nickel affinity chromatography as reported previously.^1

[2] = molecular target: T3, MspA-PBA (phenylboronic acid modified hetero-octameric (N90C)1(M2)7 MspA) (Mycolicibacterium smegmatis, UniProt A0QR29, D117C/D118N/D120N/D145R/D161R/E166K); type: binding, Mycobacterium smegmatis; settings: +200 mV
T3 construct: H6 (hexa-histidine) (C); 3-(maleimide) phenylboronic acid (MPBA) adduct on the thiol of Cys90; made in house; host or cells: E. coli BL21 (DE3) pLysS, co-expression from pETDuet-1
Experimental: FIG. 46: Definition of event parameters. […] The measurement was carried out as described in Methods in Example 2. The chambers were filled with a 1.5 M KCl buffer (1.5 M KCl, 10 mM MOPS, pH 7.0). A transmembrane potential of +200 mV was continually applied. AMP was added to cis with a final concentration of 300 μM. The open pore current (Ip), the residual current (Ib), the dwell time (τoff) and the inter-event duration (τon) are defined as marked on the trace. The percentage blockage (% Ib) is defined as (Ip−Ib)/Ip. The noise amplitude (S.D.) is defined as the standard deviation of the blockage level.
NMPs consist of a ribose, a phosphate group and a nucleobase, serving as monomeric units of RNA. […] Experimentally, single channel recording was performed using MspA-PBA in a 1.5 M KCl buffer (1.5 M KCl, 10 mM MOPS, pH 7.0) (Methods in Example 2). A transmembrane potential of +200 mV was continually applied. Four canonical NMPs, adenine mononucleotide (AMP), guanine mononucleotide (GMP), cytosine mononucleotide (CMP) and uracil mononucleotide (UMP) were tested as analytes (FIG. 33d). Either type of NMP was added to cis at a final concentration of 300 μM. Subsequently, successive resistive pulses caused by either type of NMP were immediately observed (FIG. 33d). However, no events were observed when M2 MspA was tested, confirming that the PBA located at the pore constriction is critical in the generation of NMP sensing events (FIG. 44). At this condition, ˜1800 events/h were obtained from each pore. The pore could normally withstand a few hours of continuous measurement. Deoxyribonucleoside monophosphate (dNMP) fails to report any event when sensed by MspA-PBA (FIG. 45). This is expected because dNMPs have no cis-diol structure and can't form the boronate ester which is necessary for sensing. The molecular mechanism of sensing which results from reversible covalent bond formation between an NMP and the PBA at the pore constriction is thus confirmed.
To describe NMP sensing events quantitatively, the event dwell time (τoff), the inter-event interval (τon), the percentage blockage (% Ib=(Ip−Ib)/Ip) and the noise amplitude (S.D.) were derived as described in FIG. 46. Generally, the histograms of τoff and τon show an exponential distribution, and could be fitted to derive the mean time constants τoff or τon, respectively. The histograms of % Ib and S.D. show a Gaussian distribution, which could be fitted to derive the mean percentage blockage % Ib and S.D., respectively. During NMP sensing, by varying the NMP concentrations in cis, the reciprocal of dwell time (1/τoff) remains constant, consistent with a unimolecular dissociation mechanism. Whereas the reciprocal of the inter-event interval (1/τon) linearly correlates with the NMP concentration in cis (Tables 8-11, FIG. 47-50), consistent with a bimolecular model. The dependence of the applied voltage during NMP sensing was investigated using AMP as a representative analyte. […] This is expected because in a pH 7.0 buffer, the phosphate group of NMP is negatively charged and the electrophoretic force applied on the NMP analyte can strongly regulate the rate of event appearance and the event dwell time.

Compound: OC[C@@H](O)[C@H](O)[C@@H](O)[C@H](O)CO [iditol]
- ratio (mean current percentage blockage) ([1]; +100 mV): 29.3 ± 0.2%
- std (standard deviation of the blocking level) ([1]; +100 mV): 6.64 ± 0.03 pA

Compound: OC[C@@H](O)[C@H](O)[C@H](O)[C@H](O)CO [talitol]
- ratio (mean current percentage blockage) ([1]; +100 mV): 27.3 ± 0.2%
- std (standard deviation of the blocking level) ([1]; +100 mV): 6.33 ± 0.06 pA

Compound: OC[C@@H](O)[C@H](O)[C@@H](O)CO [xylitol]
- binding events with M2 MspA (Octameric M2 MspA): No binding events were observed
- ratio (mean current percentage blockage) ([1]; +100 mV): 25.70±0.10%
- std (standard deviation of the blocking level) ([1]; +100 mV): 6.28±0.07 pA
- 1/τon ([1]; alditol 2 mM in cis, +100 mV): 0.42 ± 0.02 s⁻¹
- τoff ([1]; alditol 2 mM in cis, +100 mV): 515.3 ± 43.5 ms
- 1/τon ([1]; alditol 4 mM in cis, +100 mV): 0.84 ± 0.04 s⁻¹
- τoff ([1]; alditol 4 mM in cis, +100 mV): 496.3 ± 18.6 ms
- 1/τon ([1]; alditol 6 mM in cis, +100 mV): 1.3 ± 0.1 s⁻¹
- τoff ([1]; alditol 6 mM in cis, +100 mV): 461.1 ± 13.4 ms
- 1/τon ([1]; alditol 8 mM in cis, +100 mV): 1.71 ± 0.03 s⁻¹
- τoff ([1]; alditol 8 mM in cis, +100 mV): 474.6 ± 21.2 ms
- 1/τon ([1]; voltage series: +60 mV, glycerol 12 mM, other alditols 8 mM): 1.66 ± 0.02 s⁻¹
- 1/τon ([1]; voltage series: +80 mV, glycerol 12 mM, other alditols 8 mM): 1.69 ± 0.02 s⁻¹
- 1/τon ([1]; voltage series: +100 mV, glycerol 12 mM, other alditols 8 mM): 1.70 ± 0.03 s⁻¹
- 1/τon ([1]; voltage series: +120 mV, glycerol 12 mM, other alditols 8 mM): 1.68 ± 0.04 s⁻¹

Compound: OC[C@@H](O)[C@@H](O)[C@H](O)[C@H](O)CO [mannitol]
- ratio (mean current percentage blockage) ([1]; +100 mV): 29.2 ± 0.3%
- std (standard deviation of the blocking level) ([1]; +100 mV): 3.09 ± 0.17 pA

Compound: OC[C@@H](O)[C@@H](O)[C@@H](O)[C@@H](O)CO [allitol]
- ratio (mean current percentage blockage) ([1]; +100 mV): 27.57 ± 0.06%
- std (standard deviation of the blocking level) ([1]; +100 mV): 4.64 ± 0.03 pA

Compound: OC[C@@H](O)[C@H](O)[C@@H](O)[C@@H](O)CO [L-sorbitol]
- ratio (mean current percentage blockage) ([1]; +100 mV): 30.77 ± 0.06%
- std (standard deviation of the blocking level) ([1]; +100 mV): 5.97 ± 0.04 pA

Compound: OC[C@@H](O)[C@H](O)[C@H](O)[C@@H](O)CO [dulcitol]
- ratio (mean current percentage blockage) ([1]; +100 mV): 28.9 ± 0.3%
- std (standard deviation of the blocking level) ([1]; +100 mV): 5.22 ± 0.06 pA

Compound: O=c1[nH]cc([C@@H]2O[C@H](COP(=O)(O)O)[C@@H](O)[C@H]2O)c(=O)[nH]1 [Ψ, Pseudouridine-5′-monophosphate]
- % Ib (percentage blockage) ([2]; NMP 300 μM in cis, N=3): 10.2 ± 0.2%
- S.D. (noise amplitude of blockage level) ([2]; NMP 300 μM in cis, N=3): 2.40 ± 0.05 pA
- τoff (mean dwell time) ([2]; NMP 300 μM in cis, N=3): 36.9 ± 3.4 ms
- τon (mean inter-event interval) ([2]; NMP 300 μM in cis, N=3): 2047.7 ± 283.8 ms
- Calibration coefficient δ (NMP binding events per unit concentration per min) ([2]; sole NMP 300 μM in cis, three independent measurements): 0.099 ± 0.014 µM⁻¹ min⁻¹

Compound: Nc1ncnc2c1ncn2[C@H]1C[C@H](O)[C@@H](COP(=O)(O)O)O1 [dAMP, 2′-deoxyadenosine-5′-phosphate]
- sensing events with MspA-PBA ([2]; analyte 1 mM in cis): no dAMP sensing events were observed

Compound: OC[C@@H](O)[C@H](O)CO [threitol]
- ratio (mean current percentage blockage) ([1]; +100 mV): 20.3 ± 0.2%
- std (standard deviation of the blocking level) ([1]; +100 mV): 5.84 ± 0.18 pA

Compound: OC[C@@H](O)[C@@H](O)[C@@H](O)CO [adonitol]
- ratio (mean current percentage blockage) ([1]; +100 mV): 24.13 ± 0.15%
- std (standard deviation of the blocking level) ([1]; +100 mV): 3.83 ± 0.07 pA

Compound: OC[C@@H](O)C(O)[C@H](O)CO [arabitol]
- ratio (mean current percentage blockage) ([1]; +100 mV): 25.13 ± 0.15%
- std (standard deviation of the blocking level) ([1]; +100 mV): 4.71 ± 0.03 pA
